Experimental data: patent US11261186B2, “Biaryl derivative as GPR120 agonist” (LG CHEM, LTD., priority 2014, dated 2022)

Target: T1, hGPR120 (Homo sapiens, UniProt Q5NUL3)
T1 construct: expressed in transfected cells; host or cells: CHO-K1
T1 sequence (Q5NUL3 1-361): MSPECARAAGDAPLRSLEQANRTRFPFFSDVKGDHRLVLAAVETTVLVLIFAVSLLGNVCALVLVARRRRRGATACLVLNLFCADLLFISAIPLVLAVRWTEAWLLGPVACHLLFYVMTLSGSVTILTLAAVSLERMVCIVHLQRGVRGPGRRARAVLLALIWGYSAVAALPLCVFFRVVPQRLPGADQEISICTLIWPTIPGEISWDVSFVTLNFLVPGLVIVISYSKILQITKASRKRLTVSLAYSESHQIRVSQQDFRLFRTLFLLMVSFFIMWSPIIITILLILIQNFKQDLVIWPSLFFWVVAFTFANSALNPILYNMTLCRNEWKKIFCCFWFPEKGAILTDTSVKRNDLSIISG
Experiment: Measurement of Activity of GPR120 Agonist (Cell-Based Assay), Calcium 5 dye fluorescence
Details: CHO-K1 cells expressing Ga16 and hGPR120
Outline: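 Fluorescence increase (Ex 485 nm, Em 525 nm) after agonist addition was calculated as relative percent of the 1% DMSO-only signal. Cells were CHO-K1 stably carrying Gα16 plus human GPR120, dye-loaded for 1 h after overnight (18 h) culture.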

With `O=C(O)CCCOc1c(F)cc(-c2csc(OC3CCC3)n2)cc1Cl` [Example 426, 4-[2-chloro-4-(2-cyclobutoxy-thiazol-4-yl)-6-fluoro-phenoxy]-butyric acid] the EC50 was < 200 nM.
In the case of `O=C(O)CCCOc1c(F)cc(-c2csc(OCC3CC3)n2)cc1Cl` [Example 427, 4-[2-chloro-4-(2-cyclopropylmethoxy-thiazol-4-yl)-6-fluoro-phenoxy]-butyric acid], the EC50 is reported as < 200 nM.
For `O=C(O)CCCOc1c(F)cc(-c2nccc(OCC3CC3)n2)cc1Cl` [Example 428, 4-[2-chloro-4-(4-cyclopropylmethoxy-pyrimidin-2-yl)-6-fluoro-phenoxy]-butyric acid], the EC50 was < 200 nM.
`Cc1cc(OC2CCC2)nc(-c2cc(F)c(OCCCC(=O)O)c(Cl)c2)c1` [Example 429, 4-[2-chloro-4-(6-cyclobutoxy-4-methyl-pyridin-2-yl)-6-fluoro-phenoxy]-butyric acid] was tested, and the EC50 was < 200 nM.
`O=C(O)CCCOc1c(F)cc(-c2cncc(OC3CCC3)n2)cc1Cl` [Example 430, 4-[2-chloro-4-(6-cyclobutoxy-pyrazin-2-yl)-6-fluoro-phenoxy]-butyric acid] was tested, and the EC50 was < 200 nM.
In the case of `O=C(O)CCCOc1c(F)cc(-c2cncc(OCC3CC3)n2)cc1Cl` [Example 431, 4-[2-chloro-4-(6-cyclopropylmethoxy-pyrazin-2-yl)-6-fluoro-phenoxy]-butyric acid], the EC50 is reported as < 200 nM.
For `Cc1cc(OCC2CC2)nc(-c2cc(F)c(OCCCC(=O)O)c(F)c2)n1` [Example 432, 4-[4-(4-cyclopropylmethoxy-6-methyl-pyrimidin-2-yl)-2,6-difluoro-phenoxy]-butyric acid], the EC50 was < 200 nM.
`O=C(O)CCCOc1c(F)cc(-c2nccc(OCC3CC3)n2)cc1F` [Example 433, 4-[4-(4-cyclopropylmethoxy-pyrimidin-2-yl)-2,6-difluoro-phenoxy]-butyric acid] was tested, and the EC50 was < 200 nM.
For `O=C(O)CCCOc1c(F)cc(-c2cncc(OCC3CC3)n2)cc1F` [Example 434, 4-[4-(6-cyclopropylmethoxy-pyrazin-2-yl)-2,6-difluoro-phenoxy]-butyric acid], the EC50 was < 200 nM.
In the case of `Cc1cc(OCC2CC2)nc(-c2cc(F)c(OCCCC(=O)O)c(Cl)c2)c1` [Example 435, 4-[2-chloro-4-(6-cyclopropylmethoxy-4-methyl-pyridin-2-yl)-6-fluoro-phenoxy]-butyric acid], the EC50 is reported as < 200 nM.
For `CC(C)Oc1cncc(-c2cc(F)c(OCCCC(=O)O)c(Cl)c2)n1` [Example 436, 4-[2-chloro-6-fluoro-4-(6-isopropoxy-pyrazin-2-yl)-phenoxy]-butyric acid], the EC50 was < 200 nM.
For `CCOc1cncc(-c2cc(F)c(OCCCC(=O)O)c(Cl)c2)n1` [Example 437, 4-[2-chloro-4-(6-ethoxy-pyrazin-2-yl)-6-fluoro-phenoxy]-butyric acid], the EC50 was < 200 nM.
In the case of `O=C(O)C[C@H]1CCN(c2c(F)cc(-c3cccc(OCC4CC4)n3)cc2F)C1` [Example 438, {(R)-1-[4-(6-cyclopropylmethoxy-pyridin-2-yl)-2,6-difluoro-phenyl]-pyrrolidin-3-yl}-acetic acid], the EC50 is reported as < 200 nM.
In the case of `O=C(O)CC1CCN(c2c(F)cc(-c3cccc4c3OC(F)(F)O4)cc2F)CC1` [Example 439, {1-[4-(2,2-difluoro-benzo[1,3]dioxol-4-yl)-2,6-difluoro-phenyl]-piperidin-4-yl}-acetic acid], the EC50 is reported as 200 to 2000 nM.
`CC(C)Sc1ncccc1-c1cc(F)c2c(c1)CCC(CCC(=O)O)S2` (stereo not shown) [Example 440, 3-[8-fluoro-6-(2-isopropylsulfanyl-3-pyridyl)thiochroman-2-yl]propanoic acid] showed an EC50 of 200 to 2000 nM.
With `O=C(O)CCC1CCc2cc(-c3cccc(OC4CCC4)n3)ccc2S1` (stereo not shown) [Example 441, 3-[6-[6-(cyclobutoxy)-2-pyridyl]thiochroman-2-yl]propanoic acid] the EC50 was < 200 nM.
`COc1ccc(-c2cc(F)c(C3CC3CCC(=O)O)c(F)c2)c2c1OC(C)(C)C2` (stereo not shown) [Example 442, 3-[2-[2,6-difluoro-4-(7-methoxy-2,2-dimethyl-3H-benzofuran-4-yl)phenyl]cyclopropyl]propanoic acid] showed an EC50 of 200 to 2000 nM.
`O=C(O)CCC1CC1c1c(F)cc(-c2cccc3c2OC2(CCCC2)C3)cc1F` (stereo not shown) [Example 443, 3-[2-(2,6-difluoro-4-spiro[3H-benzofuran-2,1′-cyclopentan]-7-yl-phenyl)cyclopropyl]propanoic acid] showed an EC50 of 200 to 2000 nM.
With `O=C(O)CCC1CCc2cc(-c3cccc(OC4CCC4)n3)ccc2O1` (stereo not shown) [Example 444, 3-[6-[6-(cyclobutoxy)-2-pyridyl]chroman-2-yl]propanoic acid] the EC50 was < 200 nM.
For `O=C(O)CCC1CCc2cc(-c3cccc(OCC4CC4)n3)ccc2O1` (stereo not shown) [Example 445, 3-[6-[6-(cyclopropylmethoxy)-2-pyridyl]chroman-2-yl]propanoic acid], the EC50 was < 200 nM.
Compound `COc1cccc(-c2cc(F)c(OCCCC(=O)O)c(F)c2)c1OC` [Example 446, 4-[4-(2,3-dimethoxyphenyl)-2,6-difluoro-phenoxy]butanoic acid] has an EC50 of 200 to 2000 nM.
For `O=C(O)CCC1CCc2cc(-c3cccc(OCC4CC4)c3)ccc2O1` (stereo not shown) [Example 447, 3-[6-[3-(cyclopropylmethoxy)phenyl]chroman-2-yl]propanoic acid], the EC50 was < 200 nM.
For `O=C(O)CCC1CCc2cc(-c3cccc(OC4CCCC4)c3)ccc2O1` (stereo not shown) [Example 448, 3-[6-[3-(cyclopentoxy)phenyl]chroman-2-yl]propanoic acid], the EC50 was < 200 nM.
`CN(CCCC(=O)O)c1c(F)cc(-c2cccc3c2OC2(CCCC2)O3)cc1F` [Example 449, 4-(2,6-difluoro-N-methyl-4-spiro[1,3-benzodioxol-2,1′-cyclopentan]-4-yl-anilino)butanoic acid] was tested, and the EC50 was < 200 nM.
For `CC(CCCC(=O)O)c1c(F)cc(-c2cccc3c2OC2(CCCC2)O3)cc1F` (stereo not shown) [Example 450, 5-(2,6-difluoro-4-spiro[1,3-benzodioxol-2,1′-cyclopentan]-4-yl-phenyl)hexanoic acid], the EC50 was < 200 nM.
With `CC(C)(C)Sc1cccc(-c2ccc3c(c2)CCC(CCC(=O)O)O3)n1` (stereo not shown) [Example 451, 3-[6-(6-tert-butylsulfanyl-2-pyridyl)chroman-2-yl]propanoic acid] the EC50 was < 200 nM.
`CC(C)Oc1cccc(-c2ccc3c(c2)CCC(CCC(=O)O)O3)n1` (stereo not shown) [Example 452, 3-[6-(6-isopropoxy-2-pyridyl)chroman-2-yl]propanoic acid] was tested, and the EC50 was < 200 nM.
Work on `O=C(O)CC1CCN(c2c(F)cc(-c3cccc4c3OC3(CCCC3)O4)cc2F)CC1` [Example 453, 2-[1-(2,6-difluoro-4-spiro[1,3-benzodioxol-2,1′-cyclopentan]-4-yl-phenyl)-4-piperidyl]acetic acid] yielded an EC50 of 200 to 2000 nM.
For `CCCOc1cccc(-c2cc(F)c(OCCCC(=O)O)c(F)c2)c1OCCC` [Example 454, 4-[4-(2,3-dipropoxyphenyl)-2,6-difluoro-phenoxy]butanoic acid], the EC50 was < 200 nM.
With `COc1ccc(-c2cc(F)c(OCCCC(=O)O)c(F)c2)nc1OC1CCC1` [Example 455, 4-[4-[6-(cyclobutoxy)-5-methoxy-2-pyridyl]-2,6-difluoro-phenoxy]butanoic acid] the EC50 was < 200 nM.
For `COc1ccc(-c2cc(F)c(N(C)CCCC(=O)O)c(F)c2)nc1OC1CCC1` [Example 456, 4-[4-[6-(cyclobutoxy)-5-methoxy-2-pyridyl]-2,6-difluoro-N-methyl-anilino]butanoic acid], the EC50 was < 200 nM.
For `COc1ccc(-c2cc(F)c(N3CCC(CC(=O)O)CC3)c(F)c2)nc1OC1CCC1` [Example 457, 2-[1-[4-[6-(cyclobutoxy)-5-methoxy-2-pyridyl]-2,6-difluoro-phenyl]-4-piperidyl]acetic acid], the EC50 was 200 to 2000 nM.
In the case of `CCCOc1cccc(-c2cc(F)c(N3CCC(CC(=O)O)CC3)c(F)c2)c1OCCC` [Example 458, 2-[1-[4-(2,3-dipropoxyphenyl)-2,6-difluoro-phenyl]-4-piperidyl]acetic acid], the EC50 is reported as 200 to 2000 nM.
For `COc1ccc(-c2cc(F)c(OCCCC(=O)O)c(F)c2)nc1OCC1CC1` [Example 459, 4-[4-[6-(cyclopropylmethoxy)-5-methoxy-2-pyridyl]-2,6-difluoro-phenoxy]butanoic acid], the EC50 was < 200 nM.
For `CCCOc1cccc(-c2cc(F)c(N(C)CCCC(=O)O)c(F)c2)c1OCCC` [Example 460, 4-[4-(2,3-dipropoxyphenyl)-2,6-difluoro-N-methyl-anilino]butanoic acid], the EC50 was 200 to 2000 nM.
For `COc1ccc(-c2cc(F)c(N(C)CCCC(=O)O)c(F)c2)nc1OCC1CC1` [Example 461, 4-[4-[6-(cyclopropylmethoxy)-5-methoxy-2-pyridyl]-2,6-difluoro-N-methyl-anilino]butanoic acid], the EC50 was 200 to 2000 nM.
In the case of `COc1ccc(-c2cc(F)c(N3CCC(CC(=O)O)CC3)c(F)c2)nc1OCC1CC1` [Example 462, 2-[1-[4-[6-(cyclopropylmethoxy)-5-methoxy-2-pyridyl]-2,6-difluoro-phenyl]-4-piperidyl]acetic acid], the EC50 is reported as 200 to 2000 nM.
With `O=C(O)CCCOc1c(F)cc(-n2ccc3ccc(Cl)cc32)cc1F` [Example 463, 4-[4-(6-chloroindol-1-yl)-2,6-difluoro-phenoxy]butanoic acid] the EC50 was < 200 nM.
For `COc1ccc(-c2ccc(C(F)(F)CCCC(=O)O)cc2)nc1OC1CCC1` [Example 464, 5-[4-[6-(cyclobutoxy)-5-methoxy-2-pyridyl]phenyl]-5,5-difluoro-pentanoic acid], the EC50 was < 200 nM.
With `O=C(O)CCCOc1c(F)cc(-n2ccc3cc(F)ccc32)cc1F` [Example 465, 4-[2,6-difluoro-4-(5-fluoroindol-1-yl)phenoxy]butanoic acid] the EC50 was < 200 nM.
